Reference: the supplement of paper PMC10307832

What was measured:
Test in all cases: relative viability (nuclei count vs DMSO), 5 days (fraction); higher = more cells survive
[1] = test system: NCI-H1651
Summary of the method: (§1)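 Relative viability was taken as the ratio of nuclei in treated wells to nuclei in vehicle wells. Lung cancer cell lines in 1536-well plates received compounds by pin tool one day after seeding, either one drug alone or a fixed anchor-drug dose plus five library-drug doses (not always all listed) in √10 steps. Nuclei were counted on 4× images after 5 days of treatment, and values are medians of duplicate plates.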

[2] = test system: NCI-H1437
Summary of the method: as §1

[3] = test system: NCI-H358
Summary of the method: as §1

[4] = test system: BEN
Summary of the method: as §1

[5] = test system: SK-LU-1
Summary of the method: as §1

[6] = test system: HCC-366
Summary of the method: as §1

[7] = test system: NCI-H1734
Summary of the method: as §1

[8] = test system: COR-L23
Summary of the method: as §1

[9] = test system: LU99A
Summary of the method: as §1

[10] = test system: NCI-H460
Summary of the method: as §1

[11] = test system: LOU-NH91
Summary of the method: as §1

[12] = test system: NCI-H441
Summary of the method: as §1

[13] = test system: NCI-H2023
Summary of the method: as §1

[14] = test system: NCI-H1355
Summary of the method: as §1

[15] = test system: NCI-H1975
Summary of the method: as §1

[16] = test system: NCI-H1650
Summary of the method: as §1

[17] = test system: NCI-H2085
Summary of the method: as §1

[18] = test system: NCI-H1793
Summary of the method: as §1

[19] = test system: NCI-H838
Summary of the method: as §1

[20] = test system: NCI-H2342
Summary of the method: as §1

COc1cc2nccc(Oc3ccc(NC(=O)Nc4cc(C)on4)c(Cl)c3)c2cc1OC [Tivozanib] + Nc1ncn([C@H]2C[C@H](O)[C@@H](CO)O2)c(=O)n1 [Decitabine] (partner 2 µM)
relative viability ([1]; first compound 0.005 µM): 0.572 | relative viability ([1]; first compound 0.01581 µM): 0.551 | relative viability ([1]; first compound 0.05 µM): 0.675 | relative viability ([1]; first compound 0.1581 µM): 0.438 | relative viability ([1]; first compound 0.5 µM): 0.524 | relative viability ([2]; first compound 0.005 µM): 0.629 | relative viability ([2]; first compound 0.01581 µM): 0.582 | relative viability ([2]; first compound 0.05 µM): 0.594 | relative viability ([2]; first compound 0.1581 µM): 0.653 | relative viability ([2]; first compound 0.5 µM): 0.564 | relative viability ([3]; first compound 0.005 µM): 0.187 | relative viability ([3]; first compound 0.01581 µM): 0.217 | relative viability ([3]; first compound 0.05 µM): 0.215 | relative viability ([3]; first compound 0.1581 µM): 0.222 | relative viability ([3]; first compound 0.5 µM): 0.206 | relative viability ([4]; first compound 0.005 µM): 0.725 | relative viability ([4]; first compound 0.01581 µM): 0.703 | relative viability ([4]; first compound 0.05 µM): 0.761 | relative viability ([4]; first compound 0.1581 µM): 0.471 | relative viability ([4]; first compound 0.5 µM): 0.563 | relative viability ([5]; first compound 0.005 µM): 0.647 | relative viability ([5]; first compound 0.01581 µM): 0.643 | relative viability ([5]; first compound 0.05 µM): 0.644 | relative viability ([5]; first compound 0.1581 µM): 0.392 | relative viability ([5]; first compound 0.5 µM): 0.618 | relative viability ([6]; first compound 0.005 µM): 0.334 | relative viability ([6]; first compound 0.01581 µM): 0.306 | relative viability ([6]; first compound 0.05 µM): 0.346 | relative viability ([6]; first compound 0.1581 µM): 0.349 | relative viability ([6]; first compound 0.5 µM): 0.378 | relative viability ([7]; first compound 0.005 µM): 0.493 | relative viability ([7]; first compound 0.01581 µM): 0.428 | relative viability ([7]; first compound 0.05 µM): 0.513 | relative viability ([7]; first compound 0.1581 µM): 0.431 | relative viability ([7]; first compound 0.5 µM): 0.5 | relative viability ([8]; first compound 0.005 µM): 0.391 | relative viability ([8]; first compound 0.01581 µM): 0.398 | relative viability ([8]; first compound 0.05 µM): 0.403 | relative viability ([8]; first compound 0.1581 µM): 0.317 | relative viability ([8]; first compound 0.5 µM): 0.372 | relative viability ([9]; first compound 0.005 µM): 1.04 | relative viability ([9]; first compound 0.01581 µM): 0.769 | relative viability ([9]; first compound 0.05 µM): 0.894 | relative viability ([9]; first compound 0.1581 µM): 0.679 | relative viability ([9]; first compound 0.5 µM): 0.758 | relative viability ([10]; first compound 0.005 µM): 0.449 | relative viability ([10]; first compound 0.01581 µM): 0.468 | relative viability ([10]; first compound 0.05 µM): 0.48 | relative viability ([10]; first compound 0.1581 µM): 0.62 | relative viability ([10]; first compound 0.5 µM): 0.482 | relative viability ([11]; first compound 0.005 µM): 0.772 | relative viability ([11]; first compound 0.01581 µM): 0.8 | relative viability ([11]; first compound 0.05 µM): 0.808 | relative viability ([11]; first compound 0.1581 µM): 0.752 | relative viability ([11]; first compound 0.5 µM): 0.796 | relative viability ([12]; first compound 0.005 µM): 0.262 | relative viability ([12]; first compound 0.01581 µM): 0.25 | relative viability ([12]; first compound 0.05 µM): 0.218 | relative viability ([12]; first compound 0.1581 µM): 0.281 | relative viability ([12]; first compound 0.5 µM): 0.224 | relative viability ([13]; first compound 0.005 µM): 0.223 | relative viability ([13]; first compound 0.01581 µM): 0.219 | relative viability ([13]; first compound 0.05 µM): 0.24 | relative viability ([13]; first compound 0.1581 µM): 0.242 | relative viability ([13]; first compound 0.5 µM): 0.213 | relative viability ([14]; first compound 0.005 µM): 0.318 | relative viability ([14]; first compound 0.01581 µM): 0.314 | relative viability ([14]; first compound 0.05 µM): 0.334 | relative viability ([14]; first compound 0.1581 µM): 0.333 | relative viability ([14]; first compound 0.5 µM): 0.363 | relative viability ([15]; first compound 0.005 µM): 0.36 | relative viability ([15]; first compound 0.01581 µM): 0.414 | relative viability ([15]; first compound 0.05 µM): 0.352 | relative viability ([15]; first compound 0.1581 µM): 0.362 | relative viability ([15]; first compound 0.5 µM): 0.405 | relative viability ([16]; first compound 0.005 µM): 0.412 | relative viability ([16]; first compound 0.01581 µM): 0.493 | relative viability ([16]; first compound 0.05 µM): 0.507 | relative viability ([16]; first compound 0.1581 µM): 0.508 | relative viability ([16]; first compound 0.5 µM): 0.411 | relative viability ([17]; first compound 0.005 µM): 0.536 | relative viability ([17]; first compound 0.01581 µM): 0.609 | relative viability ([17]; first compound 0.05 µM): 0.619 | relative viability ([17]; first compound 0.1581 µM): 0.578 | relative viability ([17]; first compound 0.5 µM): 0.562 | relative viability ([18]; first compound 0.005 µM): 0.474 | relative viability ([18]; first compound 0.01581 µM): 0.518 | relative viability ([18]; first compound 0.05 µM): 0.562 | relative viability ([18]; first compound 0.5 µM): 0.481 | relative viability ([19]; first compound 0.005 µM): 0.431 | relative viability ([19]; first compound 0.01581 µM): 0.499 | relative viability ([19]; first compound 0.05 µM): 0.446 | relative viability ([19]; first compound 0.1581 µM): 0.482 | relative viability ([19]; first compound 0.5 µM): 0.428 | relative viability ([20]; first compound 0.005 µM): 0.678 | relative viability ([20]; first compound 0.01581 µM): 0.646 | relative viability ([20]; first compound 0.05 µM): 0.789 | relative viability ([20]; first compound 0.5 µM): 0.712
